In patent US12145920B2, “Lanthionine c-like protein 2 ligands, cells prepared therewith, and therapies using same” (NImmune Biopharma, Inc., priority 2019, dated 2024):
Entries after “also recorded” stand apart in the source; their conditions may differ.

Legend:
[1] = test system: Non-obese diabetic (NOD) ShiLt mice; assay: NOD mouse model of T1D; assay type: in vivo
Protocol: NOD model. Non-obese diabetic (NOD) ShiLt mice were used in this study. NOD mice have numerous genetic mutations that enable the spontaneous onset of hyperglycemia and pancreatic pathologies associated with T1D. Mice entered into the experiment at 9 weeks of age and were monitored for a […]. Mice were treated daily with vehicle, 10 mg/kg BT-63, or 20 mg/kg BT-63 by oral gavage. Once weekly blood samples were collected from the tail vein to be tested for glucose concentration by glucometer. Mice were euthanized after 12 weeks for collection of blood and organs for immunological testing.
Treatment administration. BT-63 was prepared within a 0.5% methylcellulose (12-15 cP) solution. Dosage used was 10 or 20 mg/kg delivered once daily. Mice were weighed on a weekly basis to update dosage formulation. Dosage was calculated based off mean body weights for each gender. Oral dosage was delivered by orogastric gavage of dosage in 0.2 mL volume.
Immunological analysis. Blood was collected by cardiac puncture into heparinized tube. Plasma was separated following centrifugation and assayed by Luminex for cytokine and hormones related to the development of T1D. Spleens were excised, crushed and filtered to provide a cellular suspension. Red blood cells were lysed. Cells were labeled with mixtures of extracellular (CD45, CD3, CD4, CD8, CD19, NK1.1, CD25, F4/80, CD11b, Gr1, CX3CR1, CD64) and intracellular (Tbet, BCL6, FOXP3, IFNγ, IL21, IL10) antibodies in a sequential live staining in 96-well plates in preparation for flow cytometry. Data was captured on a BD FACS Celesta and analyzed using FacsDiva.

[2] = test system: colonic CD4+ T cells from Mdr1a-/- mice; assay: Gene expression in colonic CD4+ T cells of treated Mdr1a-/- mice; assay type: in vivo; settings: oral treatment, 10 weeks of age
Excerpt: To identify signaling pathways modulated by BT-63 in vivo, we will isolate colonic CD4+ T cells from vehicle- and BT-63-treated Mdr1a−/− mice at presentation of colitis at 10 weeks of age. […] Meanwhile, expression of Pten and Ph1pp1 will increase. […] Cells will also be differentiated in the presence of inhibitors for PTEN (SF1670) or STATS (STAT5i). In the Treg differentiation media containing both IL-2 or IL-12, the addition of STAT5i will prevent the effects of BT-63 on CD25+ FOXP3+ and CD25+ Tbet+ cells. In contrast, SF1670 only will prevent effects of BT-63 on CD25+ Tbet+ cells in IL-2 containing media.

NZB/W F1 mice = assay: NZB/W F1 genetic mouse model of SLE (BT-63); assay type: in vivo
Protocol: NZB/W F 1 model. Twenty-four-week-old, female NZB/W F1 mice were randomized into vehicle or BT-63-treated arms based on baseline urine protein levels (n=10). BT-63 was orally administered daily at 20 mg/kg for 12 weeks. Mice were weighed on a weekly basis to update dosage formulation. Dosage was calculated based off mean body weights.
Immunological analysis. Blood was collected by cardiac puncture into EDTA tube. Plasma was separated following centrifugation and assayed by ELISA for anti-dsDNA antibodies and IFN-α. Urine was collected to assay for protein content to test for kidney function. Spleens were excised, crushed and filtered to provide a cellular suspension. Red blood cells were lysed. Cells were labeled with mixtures of extracellular (CD45, CD3, CD4, CD8, CD19, CD138, CD25, MHCII, CD11b, CD11c, CXCR3, IgD, IgM) and intracellular (BCL6, FOXP3, IL21, IL6, IL10) antibodies in a sequential live staining in 96-well plates in preparation for flow cytometry. Data was captured on a BD FACS Celesta and analyzed using FacsDiva.

CD4+ T cells = assay: Immune effects in CD4+ splenocytes, flow cytometry (wild type); assay type: cell-based, C57BL/6 mice
Excerpt: (§1) Cell culture. Spleens were excised from C57BL/6 mice and assessed in wild-type and LANCL2 deficient states. Spleens were crushed between the frosted ends of microscope slides and filtered to provide a cellular suspension. Red blood cells were lysed through hypotonic lysis. Remaining cells were washed and filtered. CD4+ T cells were enriched within the suspension using magnetic sorting based negative selection. Cells were collected and plated within 96 well plates coated with anti-CD3 and cultured in the presence of BT-63 at 0, 0.1, 1 and 10 micromolar or BT-104A, BT-104B, or BT-104C at 0.1 micromolar for 48 h. During the last 6 h of culture, cells were stimulated with phorbol 12-myristate-13-acetate (PMA) and ionomycin.
(§2) Immunological analysis. Cells were collected from 96 well plates and stained with a cocktail of antibodies for immunophenotyping by flow cytometry. Culture supernatant was collected and assayed for cytokine concentrations by cytometric bead array. Data was captured on a BD FACS Celesta and analyzed using FacsDiva.

[3] = test system: LANCL2 deficient CD4+ T cells; assay: Immune effects in CD4+ splenocytes, flow cytometry (LANCL2 deficient); assay type: cell-based, C57BL/6 mice; settings: in the absence of LANCL2, 0.1, 1 and 10 μM
Excerpt: as §1, §2

[4] = Pharmacokinetics after oral dosing in mice, plasma LC-MS/MS; assay type: in vivo, C57BL/6 mice; set-up: exposure: unit not given here
Protocol: C57BL/6 mice were dosed orally with 10 and 40 mg/kg of BT-63 by oral gavage of methylcellulose solution containing BT-63. After gavage, blood was collected at 0.5, 1, 2, 4, 6, 8, 12 and 24 hours after treatment. Plasma was collected from blood by centrifugation. BT-63 was extracted from plasma and quantified by LC-MS/MS.

[5] = 21 weeks of age, oral 10 or 20 mg/kg
[6] = spleen, 21 weeks of age, oral 10 or 20 mg/kg
[7] = 36 weeks of age (12 weeks of treatment), 20 mg/kg
[8] = spleen, 12 weeks oral 20 mg/kg, relative to vehicle
[9] = wild-type cells, 0.1, 1 and 10 μM, 48 h

With O=C(CN1CCN(C(=O)c2cccc(-c3nc4ccccc4[nH]3)n2)CC1)c1ccccc1 [BT-63, 2-(4-(6-(1H-benzo[d]imidazol-2-yl)picolinoyl)piperazin-1-yl)-1-phenylethanone] the “reduction of percentage of hyperglycemic mice” value ([1]; 20 mg/kg group compared to vehicle) was 50%, the HbA1c ([1]; 21 weeks of age, 10 mg/kg) was “reduced” and the HbA1c ([1]; 21 weeks of age, 20 mg/kg) was “reduced”. For the same compound, the “plasma MCP-1” value [1, 5] was “reduced”, the “plasma TNF” value [1, 5] was “reduced” and the “plasma levels of C-peptide” value [1, 5] was “increased”. The “plasma levels of insulin” value [1, 5] was “increased”, the blood glucose levels ([1]; NOD mice, oral daily, from 19 weeks of age through end) was “significantly lower” and the “CD4+IL10+ to CD4+IFNγ+ ratio” value [1, 6] was “increased”. The “PD1+ CD4+ T cells” value [1, 6] was “increasing”, the “T follicular helper (Tfh) cells (BCL6+IL21+)” value [1, 6] was “decreasing” and the “expression of Foxo1” value [2] was “significantly higher expression”. The “expression of Ph1pp1” value [2] was “increase”, the “expression of Pten” value [2] was “increase” and the “expression of Stat5a” value [2] was “significantly higher expression”. For the same compound, the “body weight change from baseline (weight loss)” value (NZB/W F1 mice; 12 weeks oral 20 mg/kg) was “protected mice from weight loss”, the proteinuria score (NZB/W F1 mice; 12 weeks oral 20 mg/kg, from baseline) was “prevented worsening” and the “plasma IFN-α levels” value (NZB/W F1 mice; [7]) was “reduced”. For the same compound, the “plasma anti-dsDNA levels” value (NZB/W F1 mice; [7]) was “reduced”, the “CXCR3+ plasma cells” value (NZB/W F1 mice; spleen, 12 weeks oral 20 mg/kg) was “moderate reduction” and the “follicular B cells” value (NZB/W F1 mice; spleen, 12 weeks oral 20 mg/kg) was “moderate reduction”. The plasma cells (NZB/W F1 mice; spleen, 12 weeks oral 20 mg/kg) was “moderate reduction”, the “CD25+ FOXP3+ regulatory CD4+ T cells” value (NZB/W F1 mice; [8]) was “greater reductions” and the “IL6+ myeloid cells” value (NZB/W F1 mice; [8]) was “greater reductions”. For the same compound, the “IL21+ BCL6+ follicular helper T cells” value (NZB/W F1 mice; [8]) was “greater reductions”, the “FOXP3+ CD4+ T cells” value (CD4+ T cells; 0.1, 1 and 10 micromolar, FIG. 4A) was “significant increase” and the “proportions of IFNγ+ CD4+ T cells” value (CD4+ T cells; [9]) was “reduced; also recorded: significant decrease”. The “proportions of IL10+ FOXP3+ CD4+ T cells” value (CD4+ T cells; [9]) was “increased”, the “proportions of TNFa-producing CD4+ T cells” value (CD4+ T cells; [9]) was “reduced” and the “effects on IFNγ+, TNFa+ and IL10+ FOXP3+ CD4+ T cells” value [3] was “lost”. For the same compound, the “increase in maximum plasma concentration compared to BT-11” value ([4]; equal oral doses (10 mg/kg)) was greater than 100 fold, the “area under the curve exposure” value ([4]; oral 10 mg/kg) was 1055 ng·h/mL and the maximum plasma concentration ([4]; oral 10 mg/kg) was 585 ng/mL. For the same compound, the exposure ([4]; oral 40 mg/kg) was 11552 and the maximum plasma concentration ([4]; oral 40 mg/kg) was 4465 ng/mL.
